Earlier results on one molecule are cited in US9969726B2, “Metabotropic glutamate receptor negative allosteric modulators (NAMS) and uses thereof” (Sanford-Burnham Medical Research Institute, priority 2014, dated 2018).

For data set [1], the system named is R6/2 mice. Particulars: 20 mg/kg daily subcutaneous injection beginning at 4 weeks; cited from earlier work.
The subject of data set [2] is cultured spinal cord astrocytes. As to conditions: astrocytes from wild-type and mGlu2 knockout mice, not mGlu3 knockout mice; cited from earlier work.
In data set [3] the test system is SMI-32+ motor neurons. Particulars: abrogated by anti-GDNF antibodies; cited from earlier work.
The subject of data set [4] is SOD1G93A mice. Particulars: continuous treatment with 1 or 5 mg/kg/day; cited from earlier work.
Data set [5] has as its system reserpine-treated rat. Particulars: cited from earlier work.

On to `N[C@@]1(C(=O)O)CO[C@H]2[C@H](C(=O)O)[C@H]21` [LY379268], for which the “phenotype in R6/2 mice” value in data set [1] is “dramatically improves the phenotype”. Besides, in data set [2], the GDNF levels result was “enhanced GDNF levels”. For the same molecule, the “protection of motor neurons against excitotoxic death” value in data set [3] was “protected”. Also, the neurological disability result in data set [4] was “beneficial effect on neurological disability”. Also, in data set [5] (intracerebroventricular 1, 5, 10, 20 nmol/2 μl, reserpine 5 mg/kg ip), the locomotor activity result is reported as “dose-dependent increase in locomotor activity”. Further, in data set [5] (systemic 0.1, 1, 10 mg/kg ip), the “reversal of reserpine-induced akinesia” value is listed as “did not reverse reserpine-induced akinesia”.
